Earlier results in patent publication KR20140130881A, “보리코나졸을 함유하는 안정한 주사용 조성물” (동아에스티 주식회사, priority 2013, dated 2014).
Converted amounts (≈) assume the structure as drawn.

aqueous solubility (pH 3, acidic solution): 200 µg/mL (≈ 573 µM)
solubility in water (water): 700 µg/mL (≈ 2000 µM)
SMILES: C[C@@H](c1ncncc1F)[C@](O)(Cn1cncn1)c1ccc(F)cc1F [보리코나졸, (2R,3S)-2-(2,4-다이플루오로페닐)-3-(5-플루오로피리미딘-4-일)-1-(1H-1,2,4-트리아졸-1-일)부탄-2-올]
